Measured values as given in ChEMBL document CHEMBL1255296, “Effect of 14-membered-ring macrolides on production of interleukin-8 mediated by protease-activated receptor 2 in human keratinocytes” (Antimicrob Agents Chemother, 2008).
Activity calls are given as the source filed them. The rule behind the calls is not given here.

Assays:
[1] = biological target: Proteinase-activated receptor 2 (Homo sapiens) (UniProt P55085); test: Inhibition of PAR2-mediated SLIGKV-NH2-induced interleukin-8 production in normal human epidermal keratinocytes preincubated for 24 hrs by ELISA
[2] = tested on: Keratinocyte; test: Effect on PAR2 gene expression in normal human epidermal keratinocytes assessed as effect on cell viability at 10 uM after 72 hrs; assay type: functional, cell-based
[3] = tested on: Keratinocyte; test: Effect on PAR2 gene expression in normal human epidermal keratinocytes assessed as effect on cell viability at 100 uM after 72 hrs; assay type: functional, cell-based
[4] = Toxicity in normal human epidermal keratinocytes assessed as effect on cell viability at 10 uM after 72 hrs by colorimetric assay; assay type: cell-based; details: keratinocyte
[5] = biological target: Proteinase-activated receptor 2 (Homo sapiens) (UniProt P55085); test: Inhibition of PAR2-mediated SLIGKV-NH2-induced interleukin-8 production in normal human epidermal keratinocytes up to 100 uM preincubated for 24 hrs by ELISA
[6] = Toxicity in normal human epidermal keratinocytes assessed as effect on cell viability at 100 uM after 72 hrs by colorimetric assay; assay type: cell-based; details: keratinocyte
[7] = biological target: Proteinase-activated receptor 2 (Homo sapiens) (UniProt P55085); test: Inhibition of PAR2-mediated IL1-beta and SLIGKV-NH2-induced interleukin-8 production in normal human epidermal keratinocytes at 10 uM by ELISA
[8] = biological target: Proteinase-activated receptor 2 (Homo sapiens) (UniProt P55085); test: Inhibition of PAR2-mediated SLIGKV-NH2-induced interleukin-8 production in normal human epidermal keratinocytes at 100 uM preincubated for 24 hrs by ELISA
[9] = biological target: Proteinase-activated receptor 2 (Homo sapiens) (UniProt P55085); test: Inhibition of PAR2-mediated SLIGKV-NH2-induced interleukin-8 production in normal human epidermal keratinocytes at 5 uM preincubated for 24 hrs by ELISA
[10] = biological target: Proteinase-activated receptor 2 (Homo sapiens) (UniProt P55085); test: Inhibition of PAR2-mediated SLIGKV-NH2-induced interleukin-8 production in normal human epidermal keratinocytes at 10 uM preincubated for 24 hrs by ELISA

Proteinase-activated receptor 2 (Homo sapiens), sequence (P55085 whole entry): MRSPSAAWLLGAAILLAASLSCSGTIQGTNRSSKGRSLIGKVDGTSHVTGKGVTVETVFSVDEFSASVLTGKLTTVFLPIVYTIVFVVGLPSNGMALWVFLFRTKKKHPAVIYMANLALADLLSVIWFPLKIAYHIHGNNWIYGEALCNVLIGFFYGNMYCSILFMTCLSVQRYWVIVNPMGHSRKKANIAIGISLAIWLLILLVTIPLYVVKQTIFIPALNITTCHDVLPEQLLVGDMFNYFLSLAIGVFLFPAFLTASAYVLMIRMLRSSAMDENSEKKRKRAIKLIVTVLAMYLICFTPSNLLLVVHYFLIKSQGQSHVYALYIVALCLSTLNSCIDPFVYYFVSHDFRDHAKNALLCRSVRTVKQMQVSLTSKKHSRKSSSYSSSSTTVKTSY

| Molecule | inhibition [1] | Activity [2] | Activity [3] | Activity [4] | inhibition [5] | Activity [6] | inhibition [7] | inhibition [8] | inhibition [9] | inhibition [10] |
| --- | --- | --- | --- | --- | --- | --- | --- | --- | --- | --- |
| CO[C@@H]1[C@@H](O[C@@H]2O[C@H](C)[C@@H](O[C@H]3C[C@@](C)(O)[C@@H](OC(=O)CC(C)C)[C@H](C)O3)[C@H](N(C)C)[C@H]2O)[C@@H](CC=O)C[C@@H](C)[C@@H](O)/C=C/C=C/C[C@@H](C)OC(=O)C[C@H]1OC(C)=O | inactive | – | – | – | – | – | – | – | – | – |
| CO[C@H]1C[C@H](O[C@H]2[C@H](C)[C@@H](O[C@@H]3O[C@H](C)C[C@H](N(C)C)[C@H]3O)[C@@H](C)C[C@@]3(CO3)C(=O)[C@H](C)[C@@H](O)[C@@H](C)[C@@H](C)OC(=O)[C@@H]2C)O[C@@H](C)[C@@H]1O | inactive | – | – | – | – | – | – | – | – | – |
| CC[C@H]1OC(=O)[C@H](C)[C@@H](O[C@H]2C[C@@](C)(OC)[C@@H](O)[C@H](C)O2)[C@H](C)[C@@H](O[C@@H]2O[C@H](C)C[C@H](N(C)C)[C@H]2O)[C@](C)(OC)C[C@@H](C)C(=O)[C@H](C)[C@@H](O)[C@]1(C)O [CLARITHROMYCIN] | – | inactive | inactive | Non-toxic | inactive | Non-toxic | Active | – | – | – |
| CC[C@H]1OC(=O)[C@H](C)[C@@H](O[C@H]2C[C@@](C)(OC)[C@@H](O)[C@H](C)O2)[C@H](C)[C@@H](O[C@@H]2O[C@H](C)C[C@H](N(C)C)[C@H]2O)[C@](C)(O)C[C@@H](C)C(=O)[C@H](C)[C@@H](O)[C@]1(C)O [ERYTHROMYCIN] | – | inactive | inactive | Non-toxic | – | Non-toxic | Active | Active | Active | Active |
| CC[C@H]1OC(=O)[C@H](C)[C@@H](O[C@H]2C[C@@](C)(OC)[C@@H](O)[C@H](C)O2)[C@H](C)[C@@H](O[C@@H]2O[C@H](C)C[C@H](N(C)C)[C@H]2O)[C@](C)(O)C[C@@H](C)/C(=N\OCOCCOC)[C@H](C)[C@@H](O)[C@]1(C)O [ROXITHROMYCIN] | – | inactive | inactive | Non-toxic | – | Non-toxic | Active | Active | – | Active |
| SPIRAMYCIN | inactive | – | – | – | – | – | – | – | – | – |
